Read-outs that look alike come from different tables or passages of the source.
Assays:
[1] = clinical trial of MS; cited from earlier work
[2] = tested on: acutely dissociated and purified rat OPCs; assay: Acute OL differentiation assay (MBP expression/cell, immunofluorescent image quantification); format: cell-based; conditions: for activation at 0.4 µM / activation at 2 µM / EC50 / activation at 0.08 µM / activation at 10 µM: Rattus norvegicus; for activation at 0.4 µM / activation at 2 µM / activation at 0.08 µM / activation at 10 µM: relative to quetiapine, sheet "All OLga data"; for EC50: average EC50 for induction of OL differentiation from independent biological replicates, eight concentrations; for hit in OL differentiation assay, MRF-TMC: ● = confirmed hit in this paper's assay; for activation at 0.08 µM: test compound at 0.08 uM, read-out: 0.08 uM (% Quet)
Outline: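 Oligodendrocyte precursor cells were enriched from P6-P7 Sprague–Dawley rat brains by immunopanning (RAN-2 and GalC depletion, O4 selection), plated at 5000 cells/well in serum-free, mitogen-free differentiation media on PDL/laminin 96-well view plates, centrifuged at 200×g, and pre-incubated 1–2 h before test compounds were added in quadruplicate. On DIV4, cells were fixed, stained for MBP and DAPI, imaged automatically, and MBP expression per cell was quantified.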

Rat OPCs = conditions: ● = hit reported; cited from earlier work
expanded OPCs = assay: cells; conditions: for viability at 0.1 µM / viability at 1 µM / viability at 10 µM: Rattus norvegicus, 72 h; for 0.1 µM (% DMSO) / 1 µM (% DMSO) / 10 µM (% DMSO): alamarBlue viability of expanded OPCs, relative to DMSO control; for 0.1 µM (% DMSO): compound at 0.1 µM; for 1 µM (% DMSO): compound at 1 µM; for 10 µM (% DMSO): compound at 10 µM
Outline: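 Expanded OPCs seeded at 10,000 cells/well in differentiation media, then exposed to NCC library compounds at 10, 1 and 0.1 µM (quadruplicate, 0.1% DMSO) for three days. Viability read as alamarBlue fluorescence (560/590 nm) after 4 h at 37 °C; tunicamycin 5 ng/ml served as toxicity control.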

[3] = in vivo models; cited from earlier work
Rat OPCs, Mouse OPCs = conditions: ● = hit reported; cited from earlier work
Mouse OPCs = conditions: ● = hit reported; cited from earlier work
transplanted hOPCs = tested on: transplanted hOPCs; set-up: method as in PMID 25716865; conditions: hypomyelinated shiverer/rag2 brain; cited from earlier work
[4] = 2 uM test compound, read-out: OL differentiation, 2 uM (% Quet)
[5] = read-out: 0.1 µM (% DMSO), alamarBlue viability of expanded OPCs, compound at 0.1 µM, sheet All Tox data
[6] = read-out: 1 µM (% DMSO), alamarBlue viability of expanded OPCs, compound at 1 µM, sheet All Tox data
[7] = read-out: 10 µM (% DMSO), alamarBlue viability of expanded OPCs, compound at 10 µM, sheet All Tox data
[8] = test compound at 0.4 uM, NCC library screen, read-out: 0.4 uM (% Quet)
[9] = read-out: 0.1 µM (% DMSO), alamarBlue viability, NCC library compound at 0.1 µM, sheet "All Tox data"
[10] = read-out: 1 µM (% DMSO), alamarBlue viability, NCC library compound at 1 µM, sheet "All Tox data"
[11] = read-out: 10 µM (% DMSO), alamarBlue viability, NCC library compound at 10 µM, sheet "All Tox data"
[12] = test compound at 2 uM, NCC library screen, read-out: 2 uM (% Quet)

## C[C@]12CC[C@@H]3c4ccc(O)cc4CC[C@H]3[C@@H]1C[C@@H](O)[C@@H]2O [estriol]
[1]
  lesion numbers and volumes: reducing the lesion numbers and volumes

## CN1CCN(CCCN2c3ccccc3Sc3ccc(C(F)(F)F)cc32)CC1 [Trifluoperazine, reference compound]
[2]; 0.4 uM test compound, read-out: OL differentiation, 0.4 uM (% Quet)
  activation at 0.4 µM: 155%
[2]; [4]
  activation at 2 µM: -103%
[2]
  EC50: 200 nM
  hit in OL differentiation assay, MRF-TMC: ●
Rat OPCs
  hit in OL differentiation assay, Deshmukh: ●
Expanded OPCs; [5]
  viability at 0.1 µM: 116%
Expanded OPCs; [6]
  viability at 1 µM: 85.8%
Expanded OPCs; [7]
  viability at 10 µM: 11.3%

## CN1CCC[C@@H]1CCO[C@](C)(c1ccccc1)c1ccc(Cl)cc1 [Clemastine]
[3]
  stimulating remyelination: efficacy in stimulating remyelination
[2]; MBP expression versus 0.1 % DMSO negative control
  promotion of OL differentiation (in words): could promote OL differentiation in our assay similar to benztropine
[2]
  hit in OL differentiation assay, MRF-TMC: ●
Rat OPCs
  hit in OL differentiation assay, Deshmukh: ●
Rat OPCs, Mouse OPCs
  hit in OL differentiation assay, Mei: ●

## OCCN1CCN(CCCN2c3ccccc3Sc3ccc(Cl)cc32)CC1 [Perphenazine, reference compound]
[2]; NCC library screen
  activation at 0.08 µM: 95.7%
[2]; [8]
  activation at 0.4 µM: 79%
[2]
  EC50: 100 nM
  hit in OL differentiation assay, MRF-TMC: ●
Rat OPCs
  hit in OL differentiation assay, Deshmukh: ●
Expanded OPCs
  0.1 µM (% DMSO): 154.3 % DMSO
  1 µM (% DMSO): 47.1 % DMSO
  10 µM (% DMSO): 9.2 % DMSO

## CC/C(=C(\c1ccccc1)c1ccc(OCCN(C)C)cc1)c1ccccc1 [Tamoxifen, reference compound]
[2]; NCC library screen
  activation at 0.08 µM: 117%
[2]; [8]
  activation at 0.4 µM: -49.8%
[2]
  hit in OL differentiation assay, MRF-TMC: ●
Expanded OPCs
  0.1 µM (% DMSO): 162.2 % DMSO
  1 µM (% DMSO): 55.1 % DMSO
  10 µM (% DMSO): 9.5 % DMSO
Mouse OPCs
  hit in OL differentiation assay, Najm: ●

## OCCN1CCN(CCCN2c3ccccc3Sc3ccc(C(F)(F)F)cc32)CC1 [Fluphenazine, reference compound]
[2]; NCC library screen
  activation at 0.08 µM: 92.6%
[2]; [8]
  activation at 0.4 µM: -2.7%
[2]
  hit in OL differentiation assay, MRF-TMC: ●
Rat OPCs
  hit in OL differentiation assay, Deshmukh: ●
Expanded OPCs; [9]
  viability at 0.1 µM: 159%
Expanded OPCs; [10]
  viability at 1 µM: 46.8%
Expanded OPCs; [11]
  viability at 10 µM: 9.6%

## CCN(CC)CC#CCOC(=O)C(O)(c1ccccc1)C1CCCCC1 (stereo not drawn) [Oxybutynin, reference compound]
[2]; [12]
  activation at 2 µM: 91.6%
[2]
  hit in OL differentiation assay, MRF-TMC: ●
Rat OPCs
  hit in OL differentiation assay, Deshmukh: ●
Expanded OPCs
  0.1 µM (% DMSO): 129.9 % DMSO
  1 µM (% DMSO): 169.5 % DMSO
  10 µM (% DMSO): 57.5 % DMSO
Rat OPCs, Mouse OPCs
  hit in OL differentiation assay, Mei: ●

## CC(C)[N+]1(C)[C@@H]2CC[C@H]1C[C@@H](OC(=O)C(CO)c1ccccc1)C2 (stereo partly drawn) [Ipatropium, reference compound]
[2]; [12]
  activation at 2 µM: 21.2%
[2]; test compound at 10 uM, NCC library screen, read-out: 10 uM (% Quet)
  activation at 10 µM: 38.6%
[2]
  EC50: 8500 nM
  hit in OL differentiation assay, MRF-TMC: ●
Rat OPCs
  hit in OL differentiation assay, Deshmukh: ●
Expanded OPCs; [9]
  viability at 0.1 µM: 92.6%
Expanded OPCs; [10]
  viability at 1 µM: 101%
Expanded OPCs; [11]
  viability at 10 µM: 123%
Rat OPCs, Mouse OPCs
  hit in OL differentiation assay, Mei: ●

## OCCOCCN1CCN(C2=Nc3ccccc3Sc3ccccc32)CC1 [Quetiapine]
[2]
  hit in OL differentiation assay, MRF-TMC: ●
Rat OPCs, Mouse OPCs
  hit in OL differentiation assay, Mei: ●
Mouse OPCs
  hit in OL differentiation assay, Najm: ●

## CN1[C@@H]2CC[C@H]1C[C@@H](OC(c1ccccc1)c1ccccc1)C2 [Benztropine]
[3]
  stimulating remyelination: efficacy in stimulating remyelination
[2]
  hit in OL differentiation assay, MRF-TMC: ●
Rat OPCs
  hit in OL differentiation assay, Deshmukh: ●
Rat OPCs, Mouse OPCs
  hit in OL differentiation assay, Mei: ●
Mouse OPCs
  hit in OL differentiation assay, Najm: ●

## O[C@@H]1CCCC[C@H]1N1CCC(c2ccccc2)CC1 (racemic) [Vesamicol, reference compound]
[2]; [4]
  activation at 2 µM: 80.7%
[2]; 10 uM test compound, read-out: OL differentiation, 10 uM (% Quet)
  activation at 10 µM: 151%
[2]
  EC50: 1400 nM
  hit in OL differentiation assay, MRF-TMC: ●
Expanded OPCs; [5]
  viability at 0.1 µM: 94.3%
Expanded OPCs; [6]
  viability at 1 µM: 120%
Expanded OPCs; [7]
  viability at 10 µM: 146%
Mouse OPCs
  hit in OL differentiation assay, Najm: ●

## O=C(O[C@H]1CN2CCC1CC2)N1CCc2ccccc2[C@@H]1c1ccccc1 [solifenacin]
Transplanted hOPCs
  oligodendrocyte differentiation of transplanted hOPCs: promoted oligodendrocyte differentiation of transplanted hOPCs

Reference: publication PMC5011342, “A high throughput drug screening assay to identify compounds that promote oligodendrocyte differentiation using acutely dissociated and purified oligodendrocyte precursor cells” (BMC Research Notes, 2016)
